ChEMBL document CHEMBL1201862, “PubChem BioAssay data set” (2004)
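Dose response: 5 concentrations. Exposure: 48 h. Format: 96-well plates. Endpoint: linear interpolation; highest concentration if not reached. GI50: concentration for 50% inhibition of growth.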 Active and inactive are the calls of the source. No stated cut-off is given here; in the data, active = GI50 up to about 1.1 µM and inactive = higher.

Tests used:
Assay in all cases: NCI-60 cell line screen, 48 h
OVCAR-3 = system: OVCAR-3
DU-145 = system: DU-145
OVCAR-8 = system: OVCAR-8
SK-MEL-28 = system: SK-MEL-28
T47D = system: T47D
MCF7 = system: MCF7
A498 = system: A498
PC-3 = system: PC-3
HOP-92 = system: HOP-92
NCI-H23 = system: NCI-H23
UACC-62 = system: UACC-62
Malme-3M = system: Malme-3M
Hs-578T = system: Hs-578T
TK-10 = system: TK-10
MDA-N = system: MDA-N
MDA-MB-435 = system: MDA-MB-435
SK-OV-3 = system: SK-OV-3
K562 = system: K562
786-0 = system: 786-0
HCC 2998 = system: HCC 2998
ACHN = system: ACHN
NCI/ADR-RES = system: NCI/ADR-RES
SR = system: SR
SNB-75 = system: SNB-75
HCT-116 = system: HCT-116
SK-MEL-2 = system: SK-MEL-2
KM12 = system: KM12
HOP-62 = system: HOP-62
NCI-H226 = system: NCI-H226
M14 = system: M14
BT-549 = system: BT-549
SF-295 = system: SF-295
SN12C = system: SN12C
RXF 393 = system: RXF 393
EKVX = system: EKVX
NCI-H522 = system: NCI-H522
A549 = system: A549
COLO 205 = system: COLO 205
LOX IMVI = system: LOX IMVI
UO-31 = system: UO-31
IGROV-1 = system: IGROV-1
HCT-15 = system: HCT-15
UACC-257 = system: UACC-257
SF-539 = system: SF-539
NCI-H460 = system: NCI-H460
CAKI-1 = system: CAKI-1
SW-620 = system: SW-620
HT-29 = system: HT-29
U-251 = system: U-251
SK-MEL-5 = system: SK-MEL-5
SF-268 = system: SF-268
OVCAR-5 = system: OVCAR-5
RPMI-8226 = system: RPMI-8226
OVCAR-4 = system: OVCAR-4
MDA-MB-231 = system: MDA-MB-231
SNB-19 = system: SNB-19
MOLT-4 = system: MOLT-4
CCRF-CEM = system: CCRF-CEM
HL-60 = system: HL-60

## Cc1c(N2CCCC2)cc2c(c1NC(=O)c1ccccc1Cl)C(C)(C)CC2(C)C
OVCAR-3
  GI50: 8.3 µM (inactive)
DU-145
  GI50: 15.9 µM (inactive)
OVCAR-8
  GI50: 16 µM (inactive)
SK-MEL-28
  GI50: 17.6 µM (inactive)
T47D
  GI50: 11.5 µM (inactive)
MCF7
  GI50: 13.8 µM (inactive)
A498
  GI50: 15 µM (inactive)
PC-3
  GI50: 15.5 µM (inactive)
HOP-92
  GI50: 11.5 µM (inactive)
NCI-H23
  GI50: 14.7 µM (inactive)
UACC-62
  GI50: 10.8 µM (inactive)
Malme-3M
  GI50: 17.7 µM (inactive)
Hs-578T
  GI50: 16.7 µM (inactive)
TK-10
  GI50: 11.1 µM (inactive)
MDA-N
  GI50: 13.9 µM (inactive)
MDA-MB-435
  GI50: 14.4 µM (inactive)
SK-OV-3
  GI50: 13.1 µM (inactive)
K562
  GI50: 35 µM (inactive)
786-0
  GI50: 14.1 µM (inactive)
HCC 2998
  GI50: 13.1 µM (inactive)
ACHN
  GI50: 15 µM (inactive)
NCI/ADR-RES
  GI50: 13.4 µM (inactive)
SR
  GI50: 14.7 µM (inactive)
SNB-75
  GI50: 15.5 µM (inactive)
HCT-116
  GI50: 10.6 µM (inactive)
SK-MEL-2
  GI50: 16.3 µM (inactive)
KM12
  GI50: 15.3 µM (inactive)
HOP-62
  GI50: 14.2 µM (inactive)
NCI-H226
  GI50: 23.2 µM (inactive)
M14
  GI50: 13.5 µM (inactive)
BT-549
  GI50: 17.8 µM (inactive)
SF-295
  GI50: 13.3 µM (inactive)
SN12C
  GI50: 16.2 µM (inactive)
RXF 393
  GI50: 14.3 µM (inactive)
EKVX
  GI50: 14.5 µM (inactive)
NCI-H522
  GI50: 13.1 µM (inactive)
A549
  GI50: 12.9 µM (inactive)
COLO 205
  GI50: 18.2 µM (inactive)
LOX IMVI
  GI50: 13.4 µM (inactive)
UO-31
  GI50: 13.2 µM (inactive)
IGROV-1
  GI50: 13.6 µM (inactive)
HCT-15
  GI50: 14.6 µM
UACC-257
  GI50: 11.7 µM (inactive)
SF-539
  GI50: 19.8 µM (inactive)
NCI-H460
  GI50: 12.3 µM (inactive)
CAKI-1
  GI50: 13.3 µM (inactive)
SW-620
  GI50: 16 µM (inactive)
HT-29
  GI50: 14.3 µM (inactive)
U-251
  GI50: 14.5 µM (inactive)
SK-MEL-5
  GI50: 16.8 µM (inactive)
SF-268
  GI50: 15.4 µM (inactive)
OVCAR-5
  GI50: 18 µM (inactive)
RPMI-8226
  GI50: 12.9 µM (inactive)
OVCAR-4
  GI50: 15.7 µM (inactive)
MDA-MB-231
  GI50: 15.4 µM (inactive)
SNB-19
  GI50: 15.2 µM (inactive)

## CC(Br)CN(CC(C)Br)c1ccc2c(c1)Cc1ccccc1-2 (configuration not stated)
OVCAR-3
  GI50: 11.7 µM (inactive)
DU-145
  GI50: 11.1 µM (inactive)
OVCAR-8
  GI50: 9.98 µM (inactive)
SK-MEL-28
  GI50: 18.9 µM (inactive)
T47D
  GI50: 10.1 µM (inactive)
MCF7
  GI50: 6.49 µM (inactive)
A498
  GI50: 13 µM (inactive)
PC-3
  GI50: 10.8 µM (inactive)
HOP-92
  GI50: 7.62 µM (inactive)
NCI-H23
  GI50: 12 µM (inactive)
UACC-62
  GI50: 11.9 µM (inactive)
Malme-3M
  GI50: 11.7 µM (inactive)
Hs-578T
  GI50: 13.4 µM (inactive)
TK-10
  GI50: 12.3 µM (inactive)
MDA-N
  GI50: 15.2 µM (inactive)
MDA-MB-435
  GI50: 13.7 µM (inactive)
SK-OV-3
  GI50: 16 µM (inactive)
K562
  GI50: 5.92 µM (inactive)
786-0
  GI50: 11.1 µM (inactive)
ACHN
  GI50: 6.64 µM (inactive)
NCI/ADR-RES
  GI50: 13.5 µM (inactive)
SR
  GI50: 1.76 µM (inactive)
SNB-75
  GI50: 12.2 µM (inactive)
HCT-116
  GI50: 11.6 µM (inactive)
SK-MEL-2
  GI50: 15.7 µM (inactive)
KM12
  GI50: 16.5 µM (inactive)
HOP-62
  GI50: 11.7 µM (inactive)
M14
  GI50: 11.6 µM (inactive)
BT-549
  GI50: 16.7 µM (inactive)
SF-295
  GI50: 10.7 µM (inactive)
SN12C
  GI50: 11.4 µM (inactive)
RXF 393
  GI50: 14.3 µM (inactive)
EKVX
  GI50: 13.8 µM (inactive)
NCI-H522
  GI50: 6.9 µM (inactive)
A549
  GI50: 12.1 µM (inactive)
COLO 205
  GI50: 14.5 µM (inactive)
LOX IMVI
  GI50: 8.11 µM (inactive)
UO-31
  GI50: 12.4 µM (inactive)
MOLT-4
  GI50: 2.34 µM (inactive)
IGROV-1
  GI50: 6.93 µM (inactive)
HCT-15
  GI50: 13.1 µM
UACC-257
  GI50: 14.1 µM (inactive)
NCI-H460
  GI50: 2.22 µM (inactive)
CCRF-CEM
  GI50: 2.03 µM (inactive)
CAKI-1
  GI50: 9.2 µM (inactive)
SW-620
  GI50: 14.2 µM (inactive)
HT-29
  GI50: 13 µM (inactive)
HL-60
  GI50: 1.73 µM (inactive)
U-251
  GI50: 10.7 µM (inactive)
SK-MEL-5
  GI50: 12.7 µM (inactive)
SF-268
  GI50: 10.2 µM (inactive)
OVCAR-5
  GI50: 18.9 µM (inactive)
RPMI-8226
  GI50: 3.27 µM (inactive)
OVCAR-4
  GI50: 13.1 µM (inactive)
MDA-MB-231
  GI50: 13.9 µM (inactive)
SNB-19
  GI50: 13.6 µM (inactive)
